Assay results as given in patent US8871787B2, “Stable crystalline salt of (R)-3-fluorophenyl-3,4,5-trifluorobenzylcarbamic acid 1-azabicyclo [2.2.2]oct-3-yl ester” (Laboratorios Salvat, S.A., priority 2007, dated 2014).

How the values were obtained:
[1] = Hygroscopicity study at controlled relative humidity; type: physicochemical; parameters: mass gain or mass loss: unit not given here
[2] = tested on: healthy postmenopausal females; test: Phase I clinical trial: tolerability and preliminary efficacy, voiding diary; type: in vivo, human
Protocol: A clinical trial was performed to evaluate the tolerability and preliminary efficacy of tarafenacin tartrate in healthy postmenopausal females.
Twelve subjects from 50 to 70 years old were randomized to receive tarafenacin tartrate 0.125 mg, 0.4 mg or placebo o.d. for 17 days. Subjects filled a diary to record time and volume of each void. A descriptive analysis was performed.

[3] = Salt screening of compound I with several acids (aspect of the salt); type: physicochemical; conditions: free base and acid in hot ethanol, cooled, solvent evaporated
Protocol: To select the most suitable salt of compound I and minimize the undesirable hygroscopic properties of the hydrochloride, several acids were tested. The free base of compound I was dissolved in hot ethanol, and then acid solution in hot ethanol was added. The mixture was then stirred and heated for 30 min. After cooling to room temperature, the solvent was removed by evaporation. […]

[4] = Equilibrium solubility of the D-tartrate salt in several solvents at 25° C.; type: physicochemical; conditions: for solubility: thermodynamic from solid, 25° C., measured as the free base

## O=C(O)C(O)C(O)C(=O)O.O=C(O[C@H]1CN2CCC1CC2)N(Cc1cc(F)c(F)c(F)c1)c1cccc(F)c1 [D-tartrate salt, D-tartrate salt of (R)-3-fluorophenyl-3,4,5-trifluorobenzylcarbamic acid 1-azabicyclo[2.2.2]oct-3-yl ester]
[1]; 12% RH, 4 h
  mass gain or mass loss: −0.26
[1]; 12% RH, 8 h
  mass gain or mass loss: −0.20
[1]; 12% RH, 14 h
  mass gain or mass loss: −0.30
[1]; 12% RH, 48 h
  mass gain or mass loss: −0.04
[1]; 12% RH, 96 h
  mass gain or mass loss: −0.30
[1]; 12% RH, 144 h
  mass gain or mass loss: −0.33
[1]; 12% RH, 168 h
  mass gain or mass loss: −0.32
[1]; 12% RH, 192 h
  mass gain or mass loss: −0.27
[1]; 12% RH, 216 h
  mass gain or mass loss: −0.29
[1]; 12% RH, 240 h
  mass gain or mass loss: −0.08
[1]; 22% RH, 4 h
  mass gain or mass loss: −0.16
[1]; 22% RH, 8 h
  mass gain or mass loss: −0.26
[1]; 22% RH, 14 h
  mass gain or mass loss: −0.25
[1]; 22% RH, 48 h
  mass gain or mass loss: −0.21
[1]; 22% RH, 96 h
  mass gain or mass loss: −0.26
[1]; 22% RH, 144 h
  mass gain or mass loss: −0.18
[1]; 22% RH, 168 h
  mass gain or mass loss: −0.28
[1]; 22% RH, 192 h
  mass gain or mass loss: −0.21
[1]; 22% RH, 216 h
  mass gain or mass loss: −0.19
[1]; 22% RH, 240 h
  mass gain or mass loss: −0.11
[1]; 33% RH, 4 h
  mass gain or mass loss: −0.25
[1]; 33% RH, 8 h
  mass gain or mass loss: −0.24
[1]; 33% RH, 14 h
  mass gain or mass loss: −0.21
[1]; 33% RH, 48 h
  mass gain or mass loss: −0.19
[1]; 33% RH, 96 h
  mass gain or mass loss: −0.17
[1]; 33% RH, 144 h
  mass gain or mass loss: −0.30
[1]; 33% RH, 168 h
  mass gain or mass loss: −0.39
[1]; 33% RH, 192 h
  mass gain or mass loss: −0.11
[1]; 33% RH, 216 h
  mass gain or mass loss: −0.15
[1]; 33% RH, 240 h
  mass gain or mass loss: −0.18
[1]; 43% RH, 4 h
  mass gain or mass loss: −0.38
[1]; 43% RH, 8 h
  mass gain or mass loss: −0.32
[1]; 43% RH, 14 h
  mass gain or mass loss: −0.21
[1]; 43% RH, 48 h
  mass gain or mass loss: −0.25
[1]; 43% RH, 96 h
  mass gain or mass loss: −0.30
[1]; 43% RH, 144 h
  mass gain or mass loss: −0.40
[1]; 43% RH, 168 h
  mass gain or mass loss: −0.34
[1]; 43% RH, 192 h
  mass gain or mass loss: −0.19
[1]; 43% RH, 216 h
  mass gain or mass loss: −0.25
[1]; 43% RH, 240 h
  mass gain or mass loss: −0.18
[1]; 53% RH, 4 h
  mass gain or mass loss: −0.19
[1]; 53% RH, 8 h
  mass gain or mass loss: −0.21
[1]; 53% RH, 14 h
  mass gain or mass loss: −0.16
[1]; 53% RH, 48 h
  mass gain or mass loss: −0.17
[1]; 53% RH, 96 h
  mass gain or mass loss: −0.19
[1]; 53% RH, 144 h
  mass gain or mass loss: −0.17
[1]; 53% RH, 168 h
  mass gain or mass loss: −0.16
[1]; 53% RH, 192 h
  mass gain or mass loss: −0.20
[1]; 53% RH, 216 h
  mass gain or mass loss: −0.14
[1]; 53% RH, 240 h
  mass gain or mass loss: 0.00
[1]; 64% RH, 4 h
  mass gain or mass loss: −0.08
[1]; 64% RH, 8 h
  mass gain or mass loss: −0.07
[1]; 64% RH, 14 h
  mass gain or mass loss: −0.07
[1]; 64% RH, 48 h
  mass gain or mass loss: 0.02
[1]; 64% RH, 96 h
  mass gain or mass loss: −0.07
[1]; 64% RH, 144 h
  mass gain or mass loss: 0.15
[1]; 64% RH, 168 h
  mass gain or mass loss: 0.15
[1]; 64% RH, 192 h
  mass gain or mass loss: 0.20
[1]; 64% RH, 216 h
  mass gain or mass loss: 0.25
[1]; 64% RH, 240 h
  mass gain or mass loss: 0.59
[1]; 75% RH, 4 h
  mass gain or mass loss: −0.08
[1]; 75% RH, 8 h
  mass gain or mass loss: 0.02
[1]; 75% RH, 14 h
  mass gain or mass loss: 0.01
[1]; 75% RH, 48 h
  mass gain or mass loss: 0.06
[1]; 75% RH, 96 h
  mass gain or mass loss: −0.06
[1]; 75% RH, 144 h
  mass gain or mass loss: −0.08
[1]; 75% RH, 168 h
  mass gain or mass loss: −0.05
[1]; 75% RH, 192 h
  mass gain or mass loss: 0.00
[1]; 75% RH, 216 h
  mass gain or mass loss: 0.01
[1]; 75% RH, 240 h
  mass gain or mass loss: 0.29
[1]; 85% RH, 4 h
  mass gain or mass loss: 0.16
[1]; 85% RH, 8 h
  mass gain or mass loss: 0.13
[1]; 85% RH, 14 h
  mass gain or mass loss: 0.22
[1]; 85% RH, 48 h
  mass gain or mass loss: 0.26
[1]; 85% RH, 96 h
  mass gain or mass loss: 0.07
[1]; 85% RH, 144 h
  mass gain or mass loss: 0.24
[1]; 85% RH, 168 h
  mass gain or mass loss: 0.18
[1]; 85% RH, 192 h
  mass gain or mass loss: 0.15
[1]; 85% RH, 216 h
  mass gain or mass loss: 0.23
[1]; 85% RH, 240 h
  mass gain or mass loss: 0.59
[1]; 93% RH or below
  mass gain or mass loss (in words): No significant mass gain or mass loss
[1]; 93% RH, 4 h
  mass gain or mass loss: 0.16
[1]; 93% RH, 8 h
  mass gain or mass loss: 0.03
[1]; 93% RH, 14 h
  mass gain or mass loss: 0.24
[1]; 93% RH, 48 h
  mass gain or mass loss: 0.44
[1]; 93% RH, 96 h
  mass gain or mass loss: 0.40
[1]; 93% RH, 144 h
  mass gain or mass loss: 0.43
[1]; 93% RH, 168 h
  mass gain or mass loss: 0.39
[1]; 93% RH, 192 h
  mass gain or mass loss: 0.38
[1]; 93% RH, 216 h
  mass gain or mass loss: 0.43
[1]; 93% RH, 240 h
  mass gain or mass loss: 0.81
[1]; 97% RH
  water addition (in words): significant water addition issue
[1]; 97% RH, 4 h
  mass gain or mass loss: 1.51
[1]; 97% RH, 8 h
  mass gain or mass loss: 1.06
[1]; 97% RH, 14 h
  mass gain or mass loss: 4.36
[1]; 97% RH, 48 h
  mass gain or mass loss: 7.86
[1]; 97% RH, 96 h
  mass gain or mass loss: 13.77
[1]; 97% RH, 144 h
  mass gain or mass loss: 23.58
[1]; 97% RH, 168 h
  mass gain or mass loss: 23.62
[1]; 97% RH, 192 h
  mass gain or mass loss: 23.06
[1]; 97% RH, 216 h
  mass gain or mass loss: 22.13
[1]; 97% RH, 240 h
  mass gain or mass loss: 19.88
[1]; before the hygroscopicity study
  KF initial: HYGR[…] (KF initial = 0.9692%)
[2]; 0.125 mg and 0.4 mg o.d. for 17 days
  effect on the volume of urine per void (in words): A dose-relationship was observed
[2]; 0.125 mg group, day 0
  number of voids per day: 7.6 times per day
[2]; 0.125 mg group, day 17
  number of voids per day: 6.8 times per day
[2]; 0.125 mg o.d., from day 10 until day 17 (steady state)
  volume per void: 450 to 550 mL
[2]; 0.4 mg group, day 0
  number of voids per day: 8 times per day
[2]; 0.4 mg group, day 17
  number of voids per day: 6.4 times per day
[2]; 0.4 mg o.d., from day 2 until the end of the study
  mean volumes per void: 550 to 650 mL
[3]; listed as D-Tartaric
  Aspect of the salt: White solid crystal precipitated in EtOH.
[3]; listed as salt obtained with D-tartaric acid
  Aspect of the salt: non-hygroscopic solid crystal
[4]; aqueous buffer, 0.1N sodium hydroxide
  solubility: 90 µg/mL
[4]; crystalline form, water
  solubility in water (in words): highly soluble in water
[4]; organic solvent or mixture, Dichloromethane
  solubility: 2200 µg/mL
[4]; organic solvent or mixture, Ethanol
  solubility: 10000 µg/mL
[4]; organic solvent or mixture, Hexane
  solubility: 300 µg/mL
[4]; organic solvent or mixture, Isopropyl alcohol
  solubility: 1500 µg/mL
[4]; organic solvent or mixture, Methanol
  solubility: 258000 µg/mL
[4]; organic solvent or mixture, n-Octanol
  solubility: 500 µg/mL
[4]; simulated gastric fluid, 0.1 Hydrochloric acid
  solubility: 367000 µg/mL
[4]; Water
  solubility: 251000 µg/mL
